Results as given in patent US20210038559A1, “CANNABINOIDS AND DERIVATIVES FOR PROMOTING IMMUNOGENICITY OF TUMOR AND INFECTED CELLS” (priority 2018, published 2021).

System: MHC-I expression by COLO 205 cells
Experiment: cells
Type: cell-based, human
Settings: not given
Experimental: A panel of synthetic cannabinoids (Cayman Chemical, #9002891) was tested for MHC class I-inducing capability in COLO 205 cells as described above. COLO 205 cells were treated with the compounds at a concentration of 35 μM and evaluated for cell surface MHC class I expression after 48 hours. Cells were harvested, stained with MHC-I mAb W6/32 (Thermo Fisher). MHC-I expression was determined by flow cytometry.

In order of rising “Induction Fold” value:
1. CCCCCCn1cccc1C(=O)c1cccc2ccccc12 [Example 202, (1-hexyl-1H-pyrrol-2-yl)-1-naphthalenyl-methanone]  1.87 Fold
2. (2-ethyl-1-pentyl-1H-indol-3-yl)-1-naphthalenyl-methanone [Example 154]  2.11 Fold
3. [2-methyl-1-(1-methylhexyl)-1H-indol-3-yl]-1-naphthalenyl-methanone [Example 137]  2.22 Fold
4. O=C(c1cccc2ccccc12)c1nn(CCCCCF)c2ccccc12 [Example 134, [1-(5-fluoropentyl)-1H-indazol-3-yl]-1-naphthalenyl-methanone]  2.23 Fold
5. (1-butyl-6-methoxy-1H-indol-3-yl)-1-naphthalenyl-methanone [Example 107]  2.39 Fold
6. (1-hexyl-5-phenyl-1H-pyrrol-3-yl)-1-naphthalenyl-methanone [Example 82]  2.54 Fold
7. 1-naphthalenyl[1-(4-penten-1-yl)-1H-indol-3-yl]-methanone [Example 73]  2.68 Fold
8. CCCCCn1cc(C(=O)c2cccc3ccccc23)cc1-c1ccccc1C [Example 60, [5-(2-methylphenyl)-1-pentyl-1H-pyrrol-3-yl]-1-naphthalenyl-methanone]  2.85 Fold

Same assay, conditions: Homo sapiens, COLO 205, 48 h, MHC-I expression, COLO 205 cells, compounds at 35 μM, 48 hours, flow cytometry (W6/32); read-out: Induction Fold

In order of falling fold induction at 35 µM:
1. O=C(Oc1ccnc2ccccc12)c1cn(CC2CCCCC2)c2ccccc12 [Example 9, quinolin-4-yl 1-(cyclohexylmethyl)-1H-indole-3-carboxylate]  5.41
2. O=C(Oc1cccc2ccncc12)c1cn(CCCCCF)c2ccccc12 [Example 16, isoquinolin-8-yl 1-(5-fluoropentyl)-1H-indole-3-carboxylate]  4.19
3. CCCCCn1cc(C(=O)c2c(C)ccc3ccccc23)c2ccccc21 [Example 25, (2-methylnaphthalen-1-yl)(1-pentyl-1H-indol-3-yl)methanone]  3.6
4. CCCCCn1nc(C(=O)N[C@H](C(N)=O)[C@@H](C)CC)c2ccccc21 (single isomer, unassigned) [Example 26]  3.49
5. CCCCCn1cc(C(=O)NC(C(N)=O)C(C)(C)C)c2ccccc21 (stereo not drawn) [Example 88, N-(1-amino-3,3-dimethyl-1-oxobutan-2-yl)-1-pentyl-1H-indole-3-carboxamide]  2.5
6. CCCC(F)Cn1cc(C(=O)c2cccc3ccccc23)c2ccccc21 (stereo not drawn) [Example 104, (1-(2-fluoropentyl)-1H-indol-3-yl)(naphthalen-1-yl)methanone]  2.41
7. CCCCCCCn1cc(C(=O)C2C(C)(C)C2(C)C)c2ccccc21 [Example 118, (1-heptyl-1H-indol-3-yl)(2,2,3,3-tetramethylcyclopropyl)-methanone]  2.33
8. C/C(=C\C(=O)c1cn(CCN2CCOCC2)c2ccccc12)C(C)(C)C [Example 132, (E)-3,4,4-trimethyl-1-(1-(2-morpholinoethyl)-1H-indol-3-yl)pent-2-en-1-one]  2.25
9. O=C(c1cccc2ccccc12)c1nn(CCCCCCl)c2ccccc12 [Example 142, (1-(5-chloropentyl)-1H-indazol-3-yl)(naphthalen-1-yl)methanone]  2.19
10. O=C(Oc1cccc2cnccc12)c1cn(CC2CCCCC2)c2ccccc12 [Example 162, isoquinolin-5-yl 1-(cyclohexylmethyl)-1H-indole-3-carboxylate]  2.04
11. CCCC(NC(=O)c1nn(Cc2ccc(F)cc2)c2ccccc12)C(N)=O (single isomer, unassigned) [Example 169, N-(1-amino-1-oxopentan-2-yl)-1-(4-fluorobenzyl)-1H-indazole-3-carboxamide]  2.01
12. O=C(c1cccc2ccccc12)c1cn(CCCCCCl)c2ccccc12 [Example 177, (1-(5-chloropentyl)-1H-indol-3-yl)(naphthalen-1-yl)methanone]  1.94
13. CC(C)(C)C(NC(=O)c1cn(Cc2ccccc2)c2ccccc12)C(N)=O (stereo not drawn) [Example 186, N-(1-amino-3,3-dimethyl-1-oxobutan-2-yl)-1-benzyl-1H-indole-3-carboxamide]  1.9
14. CCCCCc1cc(OC)c2cc(Cc3ccccc3OC)c(=O)oc2c1 [Example 200, 5-methoxy-3-[(2-methoxyphenyl)methyl]-7-pentyl-2H-1-benzopyran-2-one]  1.88
15. O=C(Nc1cccc2cccnc12)c1cn(CCCCCF)c2ccccc12 [Example 208, 1-(5-fluoropentyl)-N-(quinolin-8-yl)-1H-indole-3-carboxamide]  1.84
16. CC(C)(C)C(NC(=O)c1nn(Cc2ccccc2)c2ccccc12)C(N)=O (stereo not drawn) [Example 217, N-(1-amino-3,3-dimethyl-1-oxobutan-2-yl)-1-benzyl-1H-indazole-3-carboxamide]  1.79
17. CCc1ccc(C(=O)c2cn(CCCCCF)c3ccccc23)c2ccccc12 [Example 216, (4-ethyl-1-naphthalenyl)[1-(5-fluoropentyl)-1H-indol-3-yl]-methanone]  1.79
18. O=C(Oc1ccc2ccncc2c1)c1cn(CC2CCCCC2)c2ccccc12 [Example 254, isoquinolin-7-yl 1-(cyclohexylmethyl)-1H-indole-3-carboxylate]  1.6
19. O=C(Oc1cccc2ccccc12)c1cn(CCCCCF)c2ccccc12 [Example 257, naphthalen-1-yl 1-(5-fluoropentyl)-1H-indole-3-carboxylate]  1.59
20. O=C(Oc1cnc2ccccc2c1)c1cn(CC2CCCCC2)c2ccccc12 [Example 261, Quinolin-3-yl 1-(cyclohexylmethyl)-1H-indole-3-carboxylate]  1.56
21. CCCCCn1cc(C(=O)c2cccc3cc(Cl)ccc23)c2ccccc21 [Example 285, (6-chloronaphthalen-1-yl)(1-pentyl-1H-indol-3-yl)methanone]  1.46
22. CC(C)[C@H](NC(=O)c1nn(CCCCCF)c2ccccc12)C(N)=O [Example 292, N-[(1S)-1-(aminocarbonyl)-2-methylpropyl]-1-(5-fluoropentyl)-1H-indazole-3-carboxamide]  1.43
23. CCCCCn1nc2ccccc2c1C(=O)Nc1cccc2ccccc12 [Example 294, N-(naphthalen-1-yl)-2-pentyl-2H-indazole-3-carboxamide]  1.43
24. CC(C)(C)C(NC(=O)c1cn(CCCCCF)c2ccccc12)C(N)=O (stereo not drawn) [Example 297, N-[1-(aminocarbonyl)-2,2-dimethylpropyl]-1-(5-fluoropentyl)-1H-indole-3-carboxamide]  1.42
25. CC(F)CCCn1cc(C(=O)c2cccc3ccccc23)c2ccccc21 (stereo not drawn) [Example 316, (1-(4-fluoropentyl)-1H-indol-3-yl)(naphthalen-1-yl)methanone]  1.32
26. CC(C)[C@H](NC(=O)c1cc(-c2ccc(F)cc2)nn1CCCCCF)C(N)=O [Example 321, (S)-N-(1-amino-3-methyl-1-oxobutan-2-yl)-1-(5-fluoropentyl)-3-(4-fluorophenyl)-1H-pyrazole-5-carboxamide]  1.29
27. CC(C)[C@H](NC(=O)c1cn(Cc2ccccc2)c2ccccc12)C(N)=O [Example 323, N-[(1S)-1-(aminocarbonyl)-2-methylpropyl]-1-(phenylmethyl)-1H-indole-3-carboxamide]  1.26
28. O=C(Nc1ccc2ccccc2c1)c1cn(CCCCCF)c2ccccc12 [Example 337, 1-(5-fluoropentyl)-N-(naphthalen-2-yl)-1H-indole-3-carboxamide]  1.19
29. O=C(c1cccc2ccccc12)c1cn(CCCCCCF)c2ccccc12 [Example 341, (1-(6-fluorohexyl)-1H-indol-3-yl)(naphthalen-1-yl)methanone]  1.18
30. CCC(C)n1cc(C(=O)c2ccc3ccccc3c2)c2ccccc21 (stereo not drawn) [Example 350, (1-(sec-butyl)-1H-indol-3-yl)(naphthalen-2-yl)-methanone]  1.08
31. CCCCCCC(C)(C)c1ccc([C@@H]2C[C@@H](O)CC[C@H]2CCCO)c(O)c1 (relative stereo) [Example 375, rel-2-((1R,2R,5S)-5-hydroxy-2-(3-hydroxypropyl)cyclohexyl)-5-(2-methyloctan-2-yl)phenol]  0.33

Same assay, conditions: Homo sapiens, COLO 205, 48 h, read-out: Induction Fold

`CCCCCCC(C)(C)c1cc(OC)c(C2C=C(CO)C3CC2C3(C)C)c(OC)c1` (stereo not drawn) [Example 304, 4-[4-(1,1-dimethylheptyl)-2,6-dimethoxyphenyl]-6,6-dimethyl-bicyclo[3.1.1]hept-2-ene-2-methanol] was tested, and the fold induction at 35 µM was 1.39.

Same assay, conditions: MHC-I expression, COLO 205 cells, compounds at 35 μM, 48 hours, flow cytometry (W6/32)

In order of falling “Induction Fold” value:
1. CCOC(=O)[C@@H](NC(=O)c1nn(Cc2ccc(F)cc2)c2ccccc12)C(C)C [Example 8, ethyl (1-(4-fluorobenzyl)-1H-indazole-3-carbonyl)-1-valinate]  5.50 Fold
2. O=C(c1cccc2ccccc12)c1cn(CCCCCF)c2ccccc12 [Example 79, [1-(5-fluoropentyl)-1H-indol-3-yl]-1-naphthalenyl-methanone]  2.57 Fold
3. O=C(NC12CC3CC(CC(C3)C1)C2)c1nn(Cc2ccc(F)cc2)c2ccccc12 [Example 117, N-((3s,5s,7s)-adamantan-1-yl)-1-(4-fluorobenzyl)-1H-indazole-3-carboxamide]  2.34 Fold
4. O=C(NC12CC3CC(CC(C3)C1)C2)c1nn(CCCCCCl)c2ccccc12 [Example 333, N-((3s,5s,7s)-adamantan-1-yl)-1-(5-chloropentyl)-1H-indazole-3-carboxamide]  1.21 Fold
5. CC1=CC[C@@H]2[C@@H](C1)c1c(O)cc(C(C)(C)c3ccccc3)cc1OC2(C)C [Example 367, 6aR,7,10,10aR-tetrahydro-6,6,9-trimethyl-3-(1-methyl-1-phenylethyl)-6H-dibenzo[b,d]pyran-1-ol]  0.87 Fold
